Laboratory results as given in patent publication US20250161419A1, “SERPIN PEPTIDES AND METHODS OF USING THE SAME” (SERPIN PHARMA, LLC, priority 2022, published 2025).

Experiments:
[1] = system: MC903 induced atopic dermatitis and pruritis in mice; assay: MC903 (calcipotriol) induced AD-like inflammatory skin model, topical treatment: dermatitis score, ear volume, scratching; type: in vivo, mouse
Procedure: SP16 (in 70% ethanol) was applied topically to the ears on the days of the MC903 applications (MC903+SP16). Drug vehicle (70% EtOH) was applied to control animals (MC903) and normal control animals (NC) received EtOH in place of MC903. In-life parameters: Dermatitis score (FIG. 16A) and ear volume (FIG. 16B) measured on days 0, 3, 7, 9, 11 and 14. […] Clinical Dermatitis Score (score 0-4 for each parameter)-erythema, scale/dryness, edema, excoriation/erosion (total score 0-16).
(§1) Mice were treated with SP16 in 70% EtOH (MC903+SP16) or drug vehicle (MC903). Normal control (NC) mice were treated with EtOH only. Ears were measured for PAR2 protein expression through western blot analysis (quantitative analysis after normalization to beta-actin shown) (n=3-5). TSLP was measured in both the ears and serum by ELISA (N=3-5). Scratching was assessed over a 3 minute period after a 5-minute acclimatization period and the number of scratches are shown (n=3). IL-4 was measured in ear lysate via ELISA (N=3-5).

GAP-43 mRNA = assay: RT-qPCR of GAP-43 mRNA in primary cultured adult DRG neurons; type: cell-based, rat; settings: 240 nM, 24 h, vs vehicle
TLR4 = assay: Immunoblot of injured sciatic nerve two days after PNL, TLR4; type: in vivo, mouse; settings: 2 μg/g s.c.
Procedure: Neuropathic pain model: Mice (n=30) were randomly assigned to two different groups: SP163M (2 μg/g; s.c. 100 μl) and vehicle (H20 s.c. 100 μl). Mice were treated 1 h prior to partial nerve ligation (PNL) and then daily at least 1 h prior to behavior testing for 2 weeks. PNL studies were performed as previously disclosed^59 and adapted for mice.^57 Male mice were anesthetized with 3% isoflurane (Vetone, USA) in 1.5 L/min oxygen (Praxair, USA) and maintained with 2.5% isoflurane. An incision was made along the long axis of the femur. […] Filaments were presented in a consecutive fashion either ascending or descending using the up-down method as previously disclosed^60 and modified for mice.^57,61 The filament that caused paw withdrawal 50% of the time (the 50% PWT) was determined. […]
Immunoblots of sciatic nerve: Sciatic nerves were harvested 2 days after PNL to identify early molecular and cellular changes. […] Nerves were lysed in RIPA buffer and equal amounts of protein (20 μg) from nerves lysates, as determined by BCA Protein Assay (Bio-Rad, Hercules, CA, USA), were subjected to 10% SDS-PAGE and electro-transferred to nitrocellulose membranes. […] Primary antibodies were detected with HRP-conjugated species-specific secondary antibodies (Cell Signaling Technology, Danvers, MA, USA; cat #7076S or 4S; 1:5000). […]

CCL24 = assay: OVA-challenge allergic inflammation model, CCL24 in BALF by ELISA; type: in vivo, mouse; settings: OVA-challenge in sensitized mice, treated during challenge phase, vs vehicle
Procedure: (§2) Mice were subjected to the OVA-challenge allergic inflammation model and treated with vehicle or SP16 during the challenge phase. The bronchoalveolar lavage fluid (BALF) was analyzed for cytokines via ELISA.
(§3) The ova-induced model of allergic inflammation is a widely used model of eosinophilic driven allergic diseases.

TSLP = assay: MC903 AD model, TSLP in ears and serum by ELISA; type: in vivo, mouse; settings: topical, vs MC903 treated mice
Procedure: as §1

[2] = system: eosinophil infiltration into the lungs of mice; assay: OVA-induced allergic inflammation model, eosinophils in BALF by flow cytometry; type: in vivo, mouse; settings: p=0.04
Procedure: FIG. 15A: mice were subjected to the OVA-challenge allergic inflammation model and treated with vehicle, SP16, or A1AT during the challenge phase. The BALF was collected and analyzed for the percent of eosinophils and compared to saline (non-challenged) mice, vehicle OVA induced mice, or SP16 treated OVA induced mice.
The impact of SP16 treatment on eosinophilic infiltration in mice was assessed using the OVA-induced allergic inflammation model. The number of eosinophils in the bronchoalveolar lavage fluid was quantified by flow cytometry.

IL-2 = assay: OVA-challenge allergic inflammation model, IL-2 in BALF by ELISA; type: in vivo, mouse; settings: OVA-challenge in sensitized mice, treated during challenge phase, vs vehicle
Procedure: as §2, §3

VKFNKPFVFLMIEQNTK (SP16 peptide core sequence including the LRP1 binding site; listed as Homo sapiens)
disease (dermatitis score, ear volume) ([1]; topical solution (1%) in 70% ethanol, 14-day period, vs vehicle-treated mice): significant improvement in disease vs. vehicle-treated mice | pruritis (number of scratches over 3 minutes) ([1]; topical, vs vehicle (MC903) treated mice): significantly reduces pruritis | GAP-43 mRNA (GAP-43 mRNA): increased GAP-43 mRNA compared to vehicle-treated neurons | TLR4 expression in injured sciatic nerve (immunoblots) (TLR4): robustly down regulated TLR4 expression | CCL24 in BALF (CCL24): significantly reduces CCL24 | local (ear) TSLP (TSLP): significant reduction in systemic (serum) and local (ear) TSLP | systemic (serum) TSLP (TSLP): significant reduction in systemic (serum) and local (ear) TSLP | eosinophil infiltration into the lungs (eosinophils in BALF) [2]: reduces eosinophil infiltration into the lungs | IL-2 in BALF (IL-2): significantly reduces IL-2
